According to patent US20120157401A1, “METHODS FOR TREATING NEUROFIBROMATOSIS” (PTC Therapeutics, Inc., priority 2009, published 2012):
Marks after values point to notes of the source that are not given here.

What was measured:
[1] = Patients: hearing function (word recognition, pure tone threshold, BAER); type: in vivo, human
Source text: Hearing function: Assessments of word recognition and pure tone thresholds may be direct measures of patient functioning that define symptomatic consequences of the presence of VS (see, e.g., Halpin et al., Otol Neurotol., January 2006, 27(1):110-6). Standard clinical criteria for definition of hearing response (H-R) based on a 50-word hearing test (see, e.g., Thornton et al., J. Speech Hear. Res., September 1978, 21(3): 507-18) can be employed for word recognition tests.
Hearing Tests. Subjects may undergo hearing tests at screening, and at various times during the treatment protocol. Hearing assessment may be determined in standard clinical fashion and may include:
Determination of word recognition scores using a standardized list of test words, i.e., the 50-item Central Institute for the Deaf [CID] list W-22, recorded) (Thornton et al., J. Speech Hear Res., September 1978, 21(3): 507-18);
Pure-tone averages calculated as the average of the pure-tone thresholds at 500, 1000, 2000, and 3000 Hz;
Brainstem auditory evoked response (BAERs) reported as the latency of wave V, if present; and […]

[2] = test system: human VEGF121 and VEGF165; assay: HT1080 xenograft time course: pathologic plasma human VEGF; type: in vivo
Protocol: Experimental Design. HT1080 cells (5×10^6 cells/mouse) were implanted subcutaneously in male athymic nude mice.
Tumor size was measured by calipers immediately pre-treatment and at the time of sacrifice on Day 1, 2, or 3 (5 mice per group per day). At sacrifice, the plasma was collected for assay of pathologic human VEGF concentration using an ELISA that recognizes human VEGF121 and VEGF165 (as described in Section 9.1.1.1).

[3] = Oral pharmacokinetics in mice; type: in vivo
Protocol: The pharmacokinetic evaluations in mice were adjuncts to the primary pharmacodynamic xenograft studies. The evaluations in rats included toxicokinetic assessments in single-dose, 7-day, and 28-day toxicology studies as well as a mass-balance study after a single oral dose of ^14C-Compound #10. The evaluations in dogs included toxicokinetic assessments in 7-day and 28-day toxicology studies. In the studies performed, rodents were dosed once daily with Compound #10 formulated in vehicle and administered via oral gavage.

HT1080 cells = assay: Kinetics of S-phase transit by BrdU incorporation in HT1080 cells; type: cell-based, human
Protocol: Experimental Design. HT 1080 cells are exposed to BrdU (bromodeoxyuridine, a synthetic nucleoside that is an analogue of thymidine and is incorporated into DNA during the S phase of cell division) (FITC BrdU Flow Kit, BD Pharmingen catalog #552598). Cells are grown and treated as described in Section 9.3.1.3 above with the exception that one hour prior to harvesting by trypsinization, BrdU (final concentration 1 μM) is added to each culture for 1 hour. Cells actively replicating DNA during this brief time incorporate the BrdU into the DNA, which can then be quantitated. BrdU content is quantitated with using the FITC BrdU Flow Kit as instructed by the manufacturer. The process includes fixation (paraformaldehyde) and DNA staining with 7-AAD (7-amino-actinomycin D) followed by incubation with a fluoro-tagged anti-BrdU antibody that specifically recognizes BrdU incorporated into DNA. Dual channel FACS analysis permits assessment of both the DNA content of individual cells and the rate of transit across the S-phase, which is assessed based upon BrdU incorporation over the one hour treatment period.

SY5Y xenografts = assay: SY5Y neuroblastoma subcutaneous xenograft: tumor growth; type: in vivo
Protocol: Experimental Design. SY5Y cells are derived from a human neuroblastoma, a childhood tumor arising in neural crest cells. SY5Y cells (1×10^7 cells/mouse) were implanted subcutaneously in male athymic nude mice.
Tumor size was measured by calipers at periodic intervals. When the average tumor size in a group exceeded 2000 mm^3, the mice in the group were sacrificed and excised tumors were assayed for intratumoral VEGF concentration as described in Section 9.1.1.1.

HeLa cells = assay: Cell Titer Glo cytotoxicity / cell viability assay in HeLa cells (CC50); type: cell-based, human; conditions: any concentration tested
Source text: A dose-response analysis may be performed using the ELISA assay and conditions described above. The conditions for the dose-response ELISA are analogous to those described above. A series of, e.g., seven different concentrations may be analyzed. In parallel, a dose-response cytotoxicity assay may be performed using Cell Titer Glo (Promega) under the same conditions as the ELISA to ensure that the inhibition of VEGF expression was not due to the cytotoxicity.
Experimental Design. HeLa (human cervical carcinoma) cell cultures were established under normoxic conditions (21% oxygen). HeLa cells increase VEGF production 4- to 5-fold in response to hypoxia. […] At the completion of treatment, the conditioned media were collected and the VEGF protein levels were assayed in an enzyme-linked immunosorbent assay (ELISA) with primary antibodies that recognize the soluble VEGF121 and VEGF165 isoforms (R & D Systems, Minneapolis, Minn., USA). To ensure that decreases in VEGF concentration were not due to cytotoxicity, cultures were assayed using a standard assay ([…]-GLO® Luminescent Cell Viability Assay; Promega, Madison, Wis., USA) that measures total cellular adenosine triphosphate (ATP) concentrations as an indicator of cell viability.

LNCaP xenografts = assay: LNCaP prostate cancer xenograft: tumor growth (Table 20); type: in vivo, athymic nude mice
Protocol: Experimental Design. The LNCaP cell line is derived from a lymph node metastasis.
Tumor size was measured by calipers at periodic intervals during the study. When the mean tumor size in a mouse exceeded 1500 mm^3, mice in that group were sacrificed and both tumor and plasma were assayed for pathologic VEGF concentration as described in Section 9.1.1.1.

IL-6 = assay: Patients: serum and plasma IL-6 levels; type: in vivo, human
Protocol: Subjects with NF2 may receive continuous daily treatment with a Compound administered at 100 mg per dose, 2 times a day (BID) for up to 1 year, or longer as appropriate, or until tumor progression. […] Tumor shrinkage or an improvement in hearing are indicators of efficacy.
Anti-angiogenic activity: Assessing VEGF concentrations provides a relevant and convenient mechanism-specific marker of Compound activity. […] For example, clinically validated ELISA kits (e.g., from R&D Systems, Minneapolis, Minn.) may be used to measure concentrations of VEGF, VEGF-C, P1GF, VEGFR, and inflammatory mediators such as IL-6 and IL-8. CT scan and MRI scan may also be used to assess peritumoral inflammation or edema.
Blood for VEGF, VEGFR, and Cytokines. Two blood samples (1 for plasma and 1 for serum) may be obtained for assessment of VEGF, VEGFR, and cytokine levels.
After processing, samples may be placed into a freezer at approximately −70° C. An ELISA-based multiplex system may be used to measure plasma VEGF and cytokine levels.

[4] = 50 mg/kg QD, 5 days per week (Table 18)
[5] = LNCaP xenografts, male athymic nude mice, 10 mg/kg M-W-F oral gavage

Compound: COc1ccc(C2c3[nH]c4ccc(Cl)cc4c3CCN2C(=O)Oc2ccc(Cl)cc2)cc1 (racemic) [Compound #10]
- Hearing function in patients (FIG. 39) [1]: stabilized hearing function
- Course of pathologic plasma human VEGF concentrations ([2]; Days 2 and 3): continued to decline
- Pathologic plasma human VEGF levels vs control animals ([2]; by Day 1): numerically lower than in control animals
- Oral bioavailability [3]: orally bioavailable
- concentration at 24 h ([3]; mouse, plasma, oral, 1-mg/kg dose level, Day 1, read-out: Plasma trough concentration at 24 hours): 100 to 150 ng/mL
- Percentage of cells residing in S-phase (HT1080 cells; HT1080, 18-hour treatment, increasing doses): net increase
- BrdU incorporation of individual cells vs DMSO control (HT1080 cells; HT1080, one-hour BrdU pulse after 18-hour treatment): incorporated less BrdU
- Mean % Inhibition of Tumor Size vs Vehicle at Day 17 (SY5Y xenografts; [4]): 73* %
- Median Time to Tumor Size ≧1000 mm^3 (SY5Y xenografts; [4]): 35 days
- Toxicity on observing the animals (SY5Y xenografts; SY5Y xenograft mice): no evidence of toxicity
- Cytotoxicity (cellular ATP) (HeLa cells): No cytotoxicity was observed
- Time to tumor progression (time to reach ≧1000 mm^3) (LNCaP xenografts; 10 mg/kg M-W-F): prolonged
- Toxicity on observing the animals (LNCaP xenografts; LNCaP xenograft mice): no evidence of toxicity
- Mean % Inhibition of Tumor Size vs Vehicle at Day 35 (LNCaP xenografts; [5]): 36%
- Median Time to Tumor Size ≧1000 mm^3 (LNCaP xenografts; [5]): 38 days
- Plasma IL-6 levels in patients (FIG. 38) (IL-6): reduced
